Experimental data reported in patent publication EP0565593B1, “REDUCING PESTICIDAL INTERACTIONS IN CROPS” (priority 1990, dated 1992).
Read-outs that look alike come from different tables or passages of the source.

What was measured:
Corn [1] = test system: Corn
Velvetleaf (VELE) = assay: whole plant or invertebrate; type: in vivo, Abutilon theophrasti
SJCA = assay: Greenhouse test Procedure IV: herbicide, biocide and antidote PPI, weed SJCA (Examples 53-55; Tables 52-54); type: in vivo
Excerpt: The test in this example paralleled that in Example 51, except the procedure was according to Procedure IV above and the herbicides used were No. 1 (MON-12000); No. 21 (XRD-498) and, again, No. 18 (PURSUIT); the biocide was, again, MOCAP®. Observations were taken thirteen (13) days after PPI treatment with biocide and antidote.
This test was identical to that in Example 52, except for use of a different biocide, DIAZINON (Biocide No. 5, a nematicide and soil insecticide).
This test was also identical to that in the preceding two examples, except that the biocide was malathion (No. 7, an insecticide).
This test was identical to the preceding ones, except the biocide was DPX-43898 (No. 6, active ingredient in FORTRESS® insecticide, a soil insecticide). Also, the observation time was fourteen (14) days after PPI initiation.

Corn [2] = assay: Greenhouse test Procedure VI: biocide and antidote in furrow, herbicide PPI in cover layer (Examples 43-47, 59-61; Tables 42-46, 58-60); type: in vivo; conditions: Example 43; Antidotes 1, 7, 12, 33
Excerpt: This procedure describes interaction among herbicide, biocide and antidote when the herbicide is incorporated in a soil cover layer and the biocide and the antidote are applied in a soil furrow containing crop seed before emergence of the crop. The soil and seeding depth were described in Procedure IV. A first container was designated as an untreated control, a second container was designated as a herbicide control, a third container was designated as a herbicide + biocide control and a fourth container as a herbicide + biocide + antidote test container. The biocide and antidote were formulated as granules. The biocide was applied to the soil furrows of the third and fourth containers at an application rate of 1.1 mg of active compound per cm of row. The antidote was applied to the soil furrow of the fourth container at an application rate of 0.37 mg of active compound per cm of row. A measured amount of the herbicide dispersed or dissolved in acetone was applied to a measured quantity of soil. The quantity of soil treated with the herbicide was thoroughly mixed to incorporate the herbicide. Samples of this soil were used to cover the seed beds of the second, third and fourth containers. For each test series, the seed bed of the first container was likewise covered by a soil layer not treated with herbicide and without biocide or antidote in the soil furrow.
The containers were then placed on a bench in a greenhouse. Watering was by subirrigation plus overhead irrigation after the plants emerged. All treatments were run in duplicate. Plant response was observed according to Procedure IV. Variations in this procedure will be noted in the examples.
In continuing tests to evaluate the variations of this invention, a series of tests were conducted to determine the efficacy of the above safeners in Examples 39-42 to alleviate corn injury induced by the interaction of various additional commercial sulfonylurea herbicides with COUNTER 15G insecticide. In this example, the tests were conducted according to Procedure VI above. In modifications of that procedure, herbicides were applied to soil samples as acetone/water suspensions, incorporated by shaking in a closed container, with subsamples used to cover furrow-treated 10.2 cm pots. Pots were subirrigated followed by overhead misting on days 6-10.
This example was designed to test the safening effect of those above safeners used in this test series to relieve corn injury by negative synergism induced by interaction of COUNTER 15G and three imidazolinone herbicides, i.e., imazaquin and imazapyr (used in the POE tests in Example 41) and AC 263222 (a.i. in CADRE® herbicide). As differing from the tests in Example 41, this test was a PPI test according to Procedure VI described above. Observation of test results (Table 43) were taken thirteen 913) days after in-furrow PPI preparation.
This example describes PPI tests to evaluate said test safeners in this series with analogs of the sulfonamide herbicides tested under POE herbicide application procedures described in Example 42. In these tests, conducted according to Procedure VI described above, Herbicide Nos. 20, 22 and 24 were applied PPI with the insecticide and antidote. Observations of tests results were made thirteen days after PPI initiation.
An additional three (3) sulfonamide herbicide analogs were tested simultaneously and under the same conditions described in Example 45.
Another test of this invention involved the safening effects of the safeners in this series against negative synergy inducted by the interaction of COUNTER 15G and a sulfonylurea herbicide (OUST®), Herbicide No. 13, and PURSUIT, an imidazolinone herbicide, No. 6. Test conditions were the same as those in Examples 43-46. Other procedures for applying herbicidal formulations are as described in Example 42. […]

Corn [3] = assay: Greenhouse test Procedure II: herbicide, insecticide and antidote incorporated in cover layer (Example 4; Table 4); type: in vivo; conditions: 3 weeks
Procedure: (§1) Containers were filled and compacted with a fumigated silt loam top soil to a depth of about 1.3 cm from the top of the container. A first container was designated as an untreated control, a second container was designated as a herbicide control, and a third container was designated as a herbicide + antidote test container. Each of the containers was seeded with a crop species. A measured amount of herbicide dispersed or dissolved in acetone was applied to a measured quantity of soil. To this same quantity of soil treated with herbicide, there was added a measured amount of antidote dispersed or dissolved in acetone. The quantity of soil treated with the herbicide and antidote was thoroughly mixed to incorporate the herbicide and antidote in the soil uniformly. The seed bed in the third container of soil was covered with the soil treated with the herbicide and antidote and the container was leveled. For each test series, the seed beds of the first and second containers were likewise covered by soil layers. the cover layer of the first container was not treated with herbicide or antidote.
(§2) This procedure is the same as Procedure I, but modified in the manner that after incorporation of the chemicals (herbicide, antidote and insecticide), the containers with the covered seedbed were treated with an initial overhead irrigation equivalent to 0.6 cm rainfall, then subsequently sub-irrigated as required on greenhouse benches.
(§3) The procedure used in this test was Procedure No. 2 above. Formulations of herbicide, insecticide and antidote were applied via track sprayer sequentially onto cover layers, incorporated into the soil which was spread over seedbeds, then irrigated from above with 0.6 cm water. Observations were made three (3) weeks after treatment.

VELE (velvetleaf) = assay: Greenhouse test Procedure II (Example 4; Table 4); type: in vivo, Abutilon theophrasti; conditions: 3 weeks
Procedure: as §1, §2, §3

[4] = Table 52, Biocide No. 5 alone 8.96 kg/Ha PPI, observed 13 days after treatment
[5] = Table 54, Biocide No. 6 alone 8.96 kg/Ha PPI, observed 14 days after PPI initiation
[6] = Insecticide 2 3.36 + Herbicide 6 0.07 kg/Ha
[7] = Insecticide 2 3.36 + Herbicide 6 0.14 kg/Ha
[8] = Insecticide 2 3.36 + Herbicide 4 0.07 kg/Ha
[9] = Insecticide 2 3.36 + Herbicide 4 0.14 kg/Ha
[10] = Insecticide 2 3.36 + Herbicide 5 0.07 kg/Ha
[11] = Insecticide 2 3.36 + Herbicide 5 0.14 kg/Ha
[12] = Table 53, Biocide No. 7 alone 8.96 kg/Ha PPI, observed 13 days after treatment

Molecule: CCOP(=S)(OCC)Oc1cc(C)nc(C(C)C)n1 [Biocide No. 5, O,O-Diethyl (-(2-isopropyl-4-methyl-6-pyrimidinyl phosphorothioate, reference compound]
- % Inhibition Corn (Corn [1]; [4]): 0%
- % Inhibition VELE (Velvetleaf (VELE); [4]): 25%
- % Inhibition SJCA (SJCA; [4]): 50%

Molecule: CCOP(=S)(OCC)OC(Cl)C(Cl)(Cl)Cl (stereo not shown) [Biocide No. 6, O,O-Diethyl-O-1,2,2,2-tetrachloroethyl phosphorothioate, reference compound]
- % Inhibition Corn (Corn [1]; [5]): 0%
- % Inhibition VELE (Velvetleaf (VELE); [5]): 0%
- % Inhibition SJCA (SJCA; [5]): 0%

Molecule: COc1nc(C)nc(NC(=O)NS(=O)(=O)c2ccccc2OCCCl)n1 [Herbicide No. 11, Benzenesulfonamide, 2-(2-chloroethoxy)-N-[[(4-methoxy-6-methyl-1,3,5-triazin-2-yl)amino]carbonyl]-, reference compound]
- safening of herbicide/COUNTER 15G corn injury by the antidotes (Corn [2]): effectively reduced corn injury

Molecule: CCc1cnc(C2=NC(C)(C(C)C)C(=O)N2)c(C(=O)O)c1 (stereo not shown) [Herbicide No. 6, 3-Pyridinecarboxylic acid, 2-[4,5-dihydro-4-methyl-4-(1-methylethyl)-5-oxo-1H-imidazol-2-yl]5-ethyl]
- % Injury Corn (Corn [3]; Herbicide 6 0.07 kg/Ha): 2%
- % Injury Corn (Corn [3]; Herbicide 6 0.14 kg/Ha): 23%
- % Injury Corn (Corn [3]; [6]): 65%
- % Injury Corn (Corn [3]; [7]): 43%
- % Injury VELE (VELE (velvetleaf); Herbicide 6 0.07 kg/Ha): 33%
- % Injury VELE (VELE (velvetleaf); Herbicide 6 0.14 kg/Ha): 32%
- % Injury VELE (VELE (velvetleaf); [6]): 30%
- % Injury VELE (VELE (velvetleaf); [7]): 20%

Molecule: 2-Thiophenecarboxylic acid, 3-[[[[(4,6-dimethoxy-1,3,5-triazin-2-yl)amino]carbonyl]amino]sulfonyl]-, methyl ester [Herbicide No. 4]
- % Injury Corn (Corn [3]; Herbicide 4 0.07 kg/Ha): 15%
- % Injury Corn (Corn [3]; Herbicide 4 0.14 kg/Ha): 38%
- % Injury Corn (Corn [3]; [8]): 83%
- % Injury Corn (Corn [3]; [9]): 80%
- % Injury VELE (VELE (velvetleaf); Herbicide 4 0.07 kg/Ha): 10%
- % Injury VELE (VELE (velvetleaf); Herbicide 4 0.14 kg/Ha): 52%
- % Injury VELE (VELE (velvetleaf); [8]): 55%
- % Injury VELE (VELE (velvetleaf); [9]): 5%

Molecule: COC(=O)c1ccccc1S(=O)(=O)NC(=O)Nc1nc(C)cc(C)n1 [Herbicide No. 13, reference compound]
- safening of herbicide/COUNTER 15G corn injury by the antidotes (Corn [2]): limited to nil

Molecule: COc1nc(C)nc(NC(=O)NS(=O)(=O)c2ccccc2Cl)n1 [Herbicide No. 12, Benzenesulfonamide, 2-chloro-N-[[(4-methoxy-6-methyl-1,3,5-triazin-2-yl)amino]carbonyl]-, reference compound]
- safening of herbicide/COUNTER 15G corn injury by the antidotes (Corn [2]): effectively reduced corn injury

Molecule: COC(=O)c1ccccc1CS(=O)(=O)NC(=O)Nc1nc(OC)cc(OC)n1 [Herbicide No. 14, Benzoic acid, 2-[[[[[(4,6-dimethoxy-2-pyrimidinyl)amino]carbonyl]amino]sulfonyl]methyl]-, methyl ester, reference compound]
- safening of herbicide/COUNTER 15G corn injury by the antidotes (Corn [2]): effectively reduced corn injury

Molecule: CCOC(=O)c1ccccc1S(=O)(=O)NC(=O)Nc1nc(Cl)cc(OC)n1 [Herbicide No. 5, Benzoic acid, 2-[[[[(4-chloro-6-methoxy-2-pyrimidin-2-yl)amino]carbonyl]amino]sulfonyl]ethyl ester]
- % Injury Corn (Corn [3]; Herbicide 5 0.07 kg/Ha): 88%
- % Injury Corn (Corn [3]; Herbicide 5 0.14 kg/Ha): 92%
- % Injury Corn (Corn [3]; [10]): 95%
- % Injury Corn (Corn [3]; [11]): 98%
- % Injury VELE (VELE (velvetleaf); Herbicide 5 0.07 kg/Ha): 57%
- % Injury VELE (VELE (velvetleaf); Herbicide 5 0.14 kg/Ha): 77%
- % Injury VELE (VELE (velvetleaf); [10]): 83%
- % Injury VELE (VELE (velvetleaf); [11]): 70%

Molecule: CCOC(=O)CC(SP(=S)(OC)OC)C(=O)OCC (stereo not shown) [Biocide No. 7, O,O-Dimethyl phosphorothioate of diethyl mercaptosuccinate, reference compound]
- % Inhibition Corn (Corn [1]; [12]): 0%
- % Inhibition VELE (Velvetleaf (VELE); [12]): 0%
- % Inhibition SJCA (SJCA; [12]): 0%
